Data reported in US20240109853A1 (Shanghai Yao Yuan Biotechnology Co., Ltd., priority 2020, published 2024).

What was measured:
ALPK1 = ALPK1 (Homo sapiens (Human), UniProt Q96QP1); test: ALPK1 in vitro kinase assay (HTRF of TIFA phosphorylation); type: biochemical
[1] = tested on: ALPK1-dependent NFκB reporter gene activation in HEK293 cells stably expressing an NF-kB reporter (G9 cells); test: NFκB gene reporter alkaline phosphatase assay; type: cell-based; conditions: Homo sapiens, HEK293; read-out: NFkB assay IC50
Text: In embodiments, a compound of Formula I, or a subembodiment described herein, is an inhibitor of ALPK1 as measured, for example, in an in vitro kinase assay, or an assay designed to measure the activation of downstream targets of ALPK1 pathway activation, for example NFkB transcriptional activation and the secretion of proinflammatory cytokines and chemokines, such as IL-8, which is also referred to as CXCL-8. In general, the computer program XL fit was used for data analysis, including non-linear regression analysis. The half maximal inhibitory concentration (IC50) was used as the measure of a compound's effectiveness in the assays. IC50 values were determined using the following logistic equation Y=min+(max−min)/(1+(X/IC50^−hillslpoe), where Y is the value at the compound concentration, X. The concentration response curve fitting was conducted using GraphPad Prism version 6.00 software.
An alkaline phosphatase reporter assay system was used to measure inhibition of ALPK1-dependent NFκB reporter gene activation. Briefly, HEK293 cells stably expressing an NF-kB reporter (referred to herein as “G9 cells”) were maintained in DMEM as described above. For the assay, cells were seeded into 96-well plates at a density of 10,000 cells/well in Freestyle™ 293 Expression Medium (ThermoFisher), and allowed to attach overnight. Cells were pretreated with serially diluted compounds for 30 min and then stimulated with D-glycero-D-manno-6-fluoro-heptose-1β-S-ADP. […] NFkB gene activation was detected using the chromogenic substrate, para-nitrophenyl phosphate (pNPP) according to the manufacturer's protocols (pNPP Phosphatase Assay, Beyotime Biotechnology).

Chain of ALPK1 (Q96QP1 whole entry): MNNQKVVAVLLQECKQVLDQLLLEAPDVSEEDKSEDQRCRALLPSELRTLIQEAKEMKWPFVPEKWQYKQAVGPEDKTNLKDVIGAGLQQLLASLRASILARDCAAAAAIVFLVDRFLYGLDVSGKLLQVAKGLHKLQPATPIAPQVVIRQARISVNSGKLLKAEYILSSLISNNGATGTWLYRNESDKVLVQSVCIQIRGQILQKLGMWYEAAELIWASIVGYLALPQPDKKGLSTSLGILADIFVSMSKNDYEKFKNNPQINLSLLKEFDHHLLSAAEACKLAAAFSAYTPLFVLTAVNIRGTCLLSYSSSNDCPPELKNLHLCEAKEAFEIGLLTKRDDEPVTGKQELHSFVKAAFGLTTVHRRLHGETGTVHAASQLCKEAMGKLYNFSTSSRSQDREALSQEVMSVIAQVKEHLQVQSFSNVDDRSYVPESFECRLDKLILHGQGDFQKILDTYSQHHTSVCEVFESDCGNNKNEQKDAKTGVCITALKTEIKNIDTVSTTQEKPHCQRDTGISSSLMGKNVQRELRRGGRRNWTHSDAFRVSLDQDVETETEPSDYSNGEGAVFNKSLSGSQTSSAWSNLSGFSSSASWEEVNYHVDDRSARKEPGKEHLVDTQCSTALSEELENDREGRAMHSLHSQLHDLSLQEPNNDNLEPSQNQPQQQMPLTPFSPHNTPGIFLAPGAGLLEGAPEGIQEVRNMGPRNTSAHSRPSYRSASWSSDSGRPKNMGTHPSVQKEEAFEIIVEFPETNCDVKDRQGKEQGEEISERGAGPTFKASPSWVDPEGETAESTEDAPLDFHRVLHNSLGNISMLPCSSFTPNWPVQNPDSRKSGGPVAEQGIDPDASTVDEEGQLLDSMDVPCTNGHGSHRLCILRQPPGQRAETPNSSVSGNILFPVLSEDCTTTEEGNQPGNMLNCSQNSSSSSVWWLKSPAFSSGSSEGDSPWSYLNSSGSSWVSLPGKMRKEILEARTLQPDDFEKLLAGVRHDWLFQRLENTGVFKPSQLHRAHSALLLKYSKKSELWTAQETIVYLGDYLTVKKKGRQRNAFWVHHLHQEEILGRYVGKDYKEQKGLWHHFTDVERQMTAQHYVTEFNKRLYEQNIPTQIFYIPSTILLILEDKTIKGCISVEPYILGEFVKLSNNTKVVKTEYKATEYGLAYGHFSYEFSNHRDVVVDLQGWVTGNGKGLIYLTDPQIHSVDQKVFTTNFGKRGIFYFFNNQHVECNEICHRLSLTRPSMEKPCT

| SMILES | IC50 (ALPK1) [nM] | IC50 [1] [nM] |
| --- | --- | --- |
| COc1ccc(C(C)(C)c2csc(NC(=O)NCc3ccc(N4CCNC(C)C4)c(C(N)=O)c3)n2)cc1 (stereo not shown) [Example A063, 5-((3-(4-(2-(4-methoxyphenyl)propan-2-yl)thiazol-2-yl)ureido)methyl)-2-(3-methylpiperazin-1-yl)benzamide] | 29 | 2910 |
| CC(C)(c1ccc(Br)cc1)c1csc(NC(=O)NCc2cc(N3CCNCC3)ncn2)n1 [Example A094, 1-(4-(2-(4-bromophenyl)propan-2-yl)thiazol-2-yl)-3-((6-(piperazin-1-yl)pyrimidin-4-yl)methyl)urea] | 73 | 1290 |
| C#CC(C)(c1ccc(Br)cc1)c1csc(NC(=O)NCCN2CCOCC2)n1 (stereo not shown) [Example A155, 1-(4-(2-(4-bromophenyl)but-3-yn-2-yl)thiazol-2-yl)-3-(2-morpholinoethyl)urea] | 30 | 900 |
| CC(C)NC(=O)Nc1nc(C(C)(C)c2ccc(Br)cc2)cs1 [Example A125, 1-(4-(2-(4-bromophenyl)propan-2-yl)thiazol-2-yl)-3-isopropylurea] | 28 | 2800 |
| C#CC(C)(c1ccc(Cl)cc1)c1csc(NC(=O)N2CCC(CO)C2)n1 (stereo not shown) [Example A270, N-(4-(2-(4-chlorophenyl)but-3-yn-2-yl)thiazol-2-yl)-3-(hydroxymethyl)pyrroli-dine-1-carboxamide] | 904 | 1970 |
| COc1ccc(C(C)(C)c2csc(NC(=O)NCc3cnc(N4CCN(CCO)CC4)nc3)n2)cc1 [Example A208, 1-((2-(4-(2-hydroxyethyl)piperazin-1-yl)pyrimidin-5-yl)methyl)-3-(4-(2-(4-methoxyphenyl)propan-2-yl)thiazol-2-yl)urea] | 78 | 760 |
| C#CC(C)(c1ccc(Br)cc1)c1csc(NC(=O)N2CC(O)C2)n1 (stereo not shown) [Example A153, N-(4-(2-(4-bromophenyl)but-3-yn-2-yl)thiazol-2-yl)-3-hydroxyazetidine-1-carboxamide] | 76 | 370 |
| CC(C)(c1ccc(Br)cc1)c1csc(NC(=O)NCCN2CCNCC2)n1 [Example A177, 1-(4-(2-(4-bromophenyl)propan-2-yl)thiazol-2-yl)-3-(2-(piperazin-1-yl)ethyl)urea] | 249 | 1660 |
| C#CC(C)(c1ccc(Cl)cc1)c1csc(NC(=O)N(C)CCO)n1 (stereo not shown) [Example A254, 3-(4-(2-(4-chlorophenyl)but-3-yn-2-yl)thiazol-2-yl)-1-(2-hydroxyethyl)-1-methylurea] | 548 | 2070 |
| COc1ccc(C(C)(C)c2csc(NC(=O)NCCCN3CCC(N(C)C)C3)n2)cc1 (stereo not shown) [Example A141, 1-(3-(3-(dimethylamino)pyrrolidin-1-yl)propyl)-3-(4-(2-(4-methoxyphenyl)propan-2-yl)thiazol-2-yl)urea] | 228 | 4220 |
| CC(C)(c1ccc(Br)cc1)c1csc(NC(=O)NCc2cnc(NCCO)nc2)n1 [Example A119, 1-(4-(2-(4-bromophenyl)propan-2-yl)thiazol-2-yl)-3-((2-((2-hydroxyethyl)amino)pyri-midin-5-yl)methyl)urea] | 36 | 4430 |
| COc1ccc(C(C)(C)c2csc(NC(=O)NCCF)n2)cc1 [Example A021, 1-(2-fluoroethyl)-3-(4-(2-(4-methoxyphenyl)propan-2-yl)thiazol-2-yl)urea] | 104 | 1390 |
| CC(C)(c1ccc(Br)cc1)c1csc(NC(=O)NCCS(C)(=O)=O)n1 [Example A066, 1-(4-(2-(4-bromophenyl)propan-2-yl)thiazol-2-yl)-3-(2-(methylsulfonyl)ethyl)urea] | 126 | 10500 |
| COc1ccc(C(C)(C)c2csc(NC(=O)NCc3ccc(C(=O)NC4CCN(C)CC4)cc3)n2)cc1 [Example A018, 4-((3-(4-(2-(4-methoxyphenyl)propan-2-yl)thiazol-2-yl)ureido)methyl)-N-(1-methylpiperidin-4-yl)benzamide] | 29 | 1280 |
